This note sets out measurements from PubChem BioAssay (NCI).

Among the test systems are DU-145 prostate; NCI-H226 lung; OVCAR-3 ovarian; IGROV1 ovarian; SK-MEL-2 melanoma; SNB-19 CNS; SK-MEL-28 melanoma; SK-OV-3 ovarian; M14 melanoma; SNB-75 CNS.
Assay in all cases: NCI anticancer screen, dose series, 48 h

The structures appear in SMILES notation. Values joined by “and” are separate entries in the source; they are usually repeats but may differ in a detail not shown here. Identical values can stand only once.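 Five compound concentrations were applied to cells in 96-well plates for 48 hours; endpoints were derived by simple linear interpolation of the resulting dose-response curve. At the TGI there is no net growth.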 Some results are limits rather than exact numbers.

Regarding `COC(=O)C(C)(N=Cc1ccccc1)c1ccccc1` (stereo not drawn), the TGI with DU-145 prostate, in the assay with NCI-H226 lung, in the assay on OVCAR-3 ovarian, in the assay on IGROV1 ovarian, in the assay on SK-MEL-2 melanoma and in the assay on SNB-19 CNS was greater than 100 µM in each case. Further, the TGI with SK-MEL-28 melanoma, in the assay on SK-OV-3 ovarian, in the assay on M14 melanoma and with SNB-75 CNS was greater than 100 µM in each case.

Take `Cn1ccn2c3nc4ccccc4nc3c(=O)c(C#N)c12`: the TGI in the assay with DU-145 prostate, in the assay with NCI-H226 lung, with OVCAR-3 ovarian, in the assay with IGROV1 ovarian, in the assay on SK-MEL-2 melanoma and in the assay with SNB-19 CNS was greater than 100 µM in each case. For the same compound, the TGI in the assay on SK-MEL-28 melanoma, in the assay with SK-OV-3 ovarian, in the assay on M14 melanoma and in the assay on SNB-75 CNS was greater than 100 µM each time.

For `NC(=O)c1nnc2cc(F)ccc2c1N`, the TGI with DU-145 prostate, with NCI-H226 lung, in the assay with OVCAR-3 ovarian, in the assay with IGROV1 ovarian, in the assay with SK-MEL-2 melanoma and in the assay with SNB-19 CNS was greater than 100 µM in each case. For the same compound, the TGI with SK-OV-3 ovarian, in the assay on M14 melanoma and with SNB-75 CNS was greater than 100 µM in each case.

Regarding `C1CSCCCSCCSCCCSC1`, the TGI in the assay with DU-145 prostate, in the assay with NCI-H226 lung, in the assay on IGROV1 ovarian, in the assay on SK-MEL-2 melanoma, with SNB-19 CNS and in the assay on SK-MEL-28 melanoma was greater than 100 µM each time. Also, the TGI in the assay on SK-OV-3 ovarian, in the assay on M14 melanoma and with SNB-75 CNS was greater than 100 µM each time.

Take `COc1cc(OC)c2c(O)c3c(cc2c1)CC(C)(C)CC3=O`: the TGI in the assay with DU-145 prostate, in the assay on NCI-H226 lung, in the assay on OVCAR-3 ovarian, with IGROV1 ovarian, with SK-MEL-2 melanoma and in the assay on SNB-19 CNS was greater than 100 µM each time. The TGI in the assay on SK-MEL-28 melanoma, with SK-OV-3 ovarian, in the assay on M14 melanoma and in the assay with SNB-75 CNS was greater than 100 µM each time.

Regarding `COC(=O)C(CCc1ccccc1I)C1=CCC2(CC1)OCCO2` (stereo not drawn), the TGI with DU-145 prostate, in the assay with NCI-H226 lung, with OVCAR-3 ovarian, in the assay with IGROV1 ovarian, in the assay on SK-MEL-2 melanoma and in the assay with SNB-19 CNS was greater than 100 µM each time. The TGI in the assay on SK-MEL-28 melanoma, with SK-OV-3 ovarian, in the assay on M14 melanoma and with SNB-75 CNS was greater than 100 µM in each case.

Turning to `CCCCCCCCCCCCCCCCCCNc1ccn(C2OC(COP(=O)(O)OCC3CCC(n4cnc5c(=O)[nH]cnc54)O3)C(O)C2O)c(=O)n1` (stereo not drawn), the TGI in the assay on DU-145 prostate, with NCI-H226 lung, with OVCAR-3 ovarian, in the assay on IGROV1 ovarian, in the assay with SK-MEL-2 melanoma and in the assay on SNB-19 CNS was greater than 100 µM each time. For the same compound, the TGI in the assay on SK-MEL-28 melanoma, in the assay with SK-OV-3 ovarian, in the assay on M14 melanoma and in the assay on SNB-75 CNS was greater than 100 µM each time.

Consider `O=C(/C=C/c1ccsc1)c1ccco1`, for which the TGI in the assay on DU-145 prostate was 26.4 µM; with NCI-H226 lung it was greater than 63.6 µM; with OVCAR-3 ovarian, 26.9 µM; with IGROV1 ovarian it was 22.8 µM; in the assay on SK-MEL-2 melanoma it was 38.9 µM; with SNB-19 CNS it was 28.8 µM. Further, the TGI in the assay with SK-MEL-28 melanoma was determined as 25.4 µM; in the assay on SK-OV-3 ovarian it was 42.3 µM; in the assay with M14 melanoma, 24.2 µM; in the assay with SNB-75 CNS it was 26 µM.

Turning to `COC(=O)c1ccccc1C#CC#Cc1ccccc1C(=O)OC`, the TGI in the assay with DU-145 prostate was greater than 10 µM; with NCI-H226 lung it was greater than 10 µM; with OVCAR-3 ovarian, 7.91 µM; in the assay on IGROV1 ovarian, greater than 10 µM; with SK-MEL-2 melanoma it was greater than 10 µM; in the assay on SNB-19 CNS, greater than 10 µM. Besides, the TGI in the assay with SK-MEL-28 melanoma, with SK-OV-3 ovarian and in the assay with M14 melanoma was greater than 10 µM each time.

For `CC(C)SC(C)(NC(=O)C1C(C)(C)CCC1(C)C)C(=O)O` (stereo not drawn), the TGI with DU-145 prostate, with NCI-H226 lung, in the assay with SK-MEL-2 melanoma, in the assay on SNB-19 CNS, with SK-MEL-28 melanoma and with SK-OV-3 ovarian was greater than 100 µM throughout. Besides, the TGI in the assay with M14 melanoma and in the assay on SNB-75 CNS was greater than 100 µM each time.

Consider `C=CCOc1ccccc1N=N/C(C#N)=N\Nc1ccccc1OCC=C`, for which the TGI with DU-145 prostate, in the assay with NCI-H226 lung, in the assay with OVCAR-3 ovarian, with IGROV1 ovarian, in the assay with SK-MEL-2 melanoma and with SNB-19 CNS was greater than 100 µM throughout. Moreover, the TGI in the assay with SK-MEL-28 melanoma, in the assay with SK-OV-3 ovarian, in the assay with M14 melanoma and in the assay on SNB-75 CNS was greater than 100 µM each time.

In the case of `O=C(Nc1nc2c(=O)[nH]cnc2s1)c1ccccc1`, the TGI in the assay with DU-145 prostate, in the assay with NCI-H226 lung, in the assay on OVCAR-3 ovarian, with IGROV1 ovarian, in the assay on SK-MEL-2 melanoma and in the assay with SNB-19 CNS was greater than 100 µM throughout. The TGI in the assay on SK-MEL-28 melanoma, in the assay on SK-OV-3 ovarian and in the assay on SNB-75 CNS was greater than 100 µM each time.

For `O=C1NC(N/N=C\C(O)C(O)C(O)CO)=N/C1=C/c1ccc(Cl)cc1` (stereo not drawn), the TGI was greater than 100 µM in the assay on DU-145 prostate; greater than 100 µM in the assay with NCI-H226 lung; 58.3 µM and 91.9 µM in the assay on OVCAR-3 ovarian; greater than 100 µM in the assay on IGROV1 ovarian; greater than 100 µM in the assay with SK-MEL-2 melanoma; greater than 100 µM in the assay on SNB-19 CNS. In addition, the TGI was greater than 100 µM with SK-MEL-28 melanoma, greater than 100 µM in the assay with SK-OV-3 ovarian, 77.8 µM in the assay on M14 melanoma and greater than 100 µM in the assay on SNB-75 CNS.

For the compound `Cc1cc(-c2[nH]c(C(=O)O)cc2I)on1`, the TGI in the assay with DU-145 prostate, in the assay with OVCAR-3 ovarian, in the assay with IGROV1 ovarian, in the assay on SK-MEL-2 melanoma, in the assay with SNB-19 CNS and in the assay with SK-MEL-28 melanoma was greater than 100 µM in each case. Also, the TGI in the assay with SK-OV-3 ovarian, with M14 melanoma and in the assay on SNB-75 CNS was greater than 100 µM in each case.
